According to the supplement of paper PMC13380429:

Legend:
Details in all cases: 72 h
Caco-2 [1] = experiment: relative viability EC50 (midpoint between 100% and the lowest measured viability); higher = less toxic
Vero E6 [2] = experiment: as above
U2OS [3] = experiment: as above
Calu-3 [4] = experiment: as above
Caco-2 [5] = experiment: drug sensitivity score (DSS) for viability; higher = more toxic; extreme values may be limits of the assay
Vero E6 [6] = experiment: as above
U2OS [7] = experiment: as above
HepG2 [8] = experiment: as above
Calu-3 [9] = experiment: as above
Caco-2 [10] = experiment: cell viability relative to DMSO; higher = less toxic
Vero E6 [11] = experiment: as above
U2OS [12] = experiment: as above
HepG2 [13] = experiment: as above
Calu-3 [14] = experiment: as above
HepG2 [15] = experiment: relative viability EC50 (midpoint between 100% and the lowest measured viability); higher = less toxic

Row | SMILES | relative viability EC50 (Caco-2 [1]) | relative viability EC50 (Vero E6 [2]) | relative viability EC50 (U2OS [3]) | relative viability EC50 (Calu-3 [4]) | drug sensitivity score (Caco-2 [5]) | drug sensitivity score (Vero E6 [6]) | drug sensitivity score (U2OS [7]) | drug sensitivity score (HepG2 [8]) | drug sensitivity score (Calu-3 [9]) | cell viability (Caco-2 [10]; 1 nM) | cell viability (Caco-2 [10]; 10 nM) | cell viability (Caco-2 [10]; 100 nM) | cell viability (Caco-2 [10]; 1000 nM) | cell viability (Caco-2 [10]; 10000 nM) | cell viability (Vero E6 [11]; 1 nM) | cell viability (Vero E6 [11]; 10 nM) | cell viability (Vero E6 [11]; 100 nM) | cell viability (Vero E6 [11]; 1000 nM) | cell viability (Vero E6 [11]; 10000 nM) | cell viability (U2OS [12]; 1 nM) | cell viability (U2OS [12]; 10 nM) | cell viability (U2OS [12]; 100 nM) | cell viability (U2OS [12]; 1000 nM) | cell viability (U2OS [12]; 10000 nM) | cell viability (HepG2 [13]; 1 nM) | cell viability (HepG2 [13]; 10 nM) | cell viability (HepG2 [13]; 100 nM) | cell viability (HepG2 [13]; 1000 nM) | cell viability (HepG2 [13]; 10000 nM) | cell viability (Calu-3 [14]; 1 nM) | cell viability (Calu-3 [14]; 10 nM) | cell viability (Calu-3 [14]; 100 nM) | cell viability (Calu-3 [14]; 1000 nM) | cell viability (Calu-3 [14]; 10000 nM) | relative viability EC50 (HepG2 [15])
1 | Nc1nc2c(c(N3CCNCC3)n1)CCC1=C2[C@@H]2CCCC[C@@H]2O1 | > 10 µM | > 10 µM | > 10 µM | > 10 µM | 0 | 0.1 | 0 | 2.2 | 0 | 99.3% | 95.5% | 93% | 91.5% | 103% | 96.3% | 93% | 93.6% | 88.5% | 90% | 102% | 100% | 99.5% | 98.8% | 101% | 94.8% | 105% | 109% | 102% | 54.2% | 104% | 105% | 101% | 106% | 96.4% | 
2 | O=C(CC12CC3CC(CC(C3)C1)C2)Nc1cccc2nc(NCCNCCO)ccc12 | > 10 µM | > 10 µM | > 10 µM | > 10 µM | 0 | 0 | 0 | 0 | 0 | 91.2% | 93.1% | 93.8% | 91.8% | 91.8% | 96% | 102% | 95.8% | 91.4% | 100% | 96.1% | 102% | 95.2% | 97.9% | 95.1% | 97.5% | 94.7% | 93.7% | 96.8% | 99.9% | 99% | 101% | 92.1% | 98.4% | 94.9% | > 10 µM
3 | O=C1NC(=O)C(c2ccccc2[N+](=O)[O-])=C1Nc1ccc(O)c(Cl)c1 | > 10 µM | > 10 µM | > 10 µM | > 10 µM | 0 | 0 | 0 | 0 | 0 | 98.1% | 94.3% | 104% | 95.7% | 107% | 101% | 103% | 98.8% | 105% | 105% | 93.5% | 94.9% | 101% | 103% | 104% | 102% | 97.1% | 95.5% | 104% | 100% | 91.4% | 91.9% | 94.4% | 85.9% | 88.9% | > 10 µM
4 | O=S(=O)(/N=C/c1c(O)ccc2ccccc12)c1cccs1 | > 10 µM | > 10 µM | > 10 µM | > 10 µM | 0 | 0 | 0 | 0 | 0 | 102% | 95.8% | 97.4% | 95.9% | 103% | 99.9% | 102% | 100% | 106% | 94.5% | 103% | 100% | 98.9% | 99.5% | 103% | 100% | 120% | 96.8% | 109% | 99.9% | 91.3% | 99.3% | 99.8% | 104% | 100% | > 10 µM
5 | O=S(=O)(c1ccccc1)c1cnc2c(N3CCNCC3)cccc2c1 | > 10 µM | > 10 µM | > 10 µM | > 10 µM | 0 | 0 | 0 | 0 | 0 | 95.9% | 101% | 102% | 94.8% | 101% | 93.3% | 97.4% | 95% | 97.3% | 106% | 102% | 96.8% | 102% | 99% | 97% | 93.8% | 105% | 97.1% | 108% | 87.2% | 90.2% | 96.5% | 104% | 96.7% | 98.4% | > 10 µM
6 | OC(CN1CCN(c2cccc(Cl)c2)CC1)C(c1ccccc1)c1ccccc1 (stereo not drawn) | > 10 µM | > 10 µM | > 10 µM | > 10 µM | 0 | 0 | 0 | 0 | 0 | 93.3% | 101% | 101% | 94.4% | 105% | 95.5% | 96.9% | 88.9% | 99.7% | 104% | 95.2% | 97.9% | 98.2% | 95.8% | 92.8% | 103% | 102% | 92.4% | 108% | 102% | 102% | 110% | 98.6% | 99.9% | 104% | > 10 µM
7 | c1ccc2c(c1)CCCc1cc(NCCN3CCOCC3)nnc1-2 | > 10 µM | > 10 µM | > 10 µM | > 10 µM | 0 | 0 | 0 | 0 | 0 | 97.7% | 99.2% | 96.1% | 105% | 87.7% | 104% | 98.9% | 108% | 104% | 99% | 97.1% | 99.7% | 92.9% | 98.1% | 96.6% | 101% | 101% | 94.4% | 87.7% | 101% | 99.7% | 105% | 96.1% | 113% | 94.9% | > 10 µM
8 | CC(C)(C)c1cc(C(C)(C)C)c2c(c1)C(O)(C(F)(F)F)C(=O)O2 (racemic) [rac-BHFF] | > 10 µM | > 10 µM | > 10 µM | > 10 µM | 0 | 0 | 0 | 0 | 0 | 94.3% | 91.8% | 87.4% | 93% | 94.6% | 99% | 103% | 99.3% | 103% | 99% | 100% | 96.8% | 103% | 99.1% | 108% | 92.4% | 105% | 98.2% | 104% | 91.8% | 95.9% | 93.4% | 94.8% | 93.2% | 106% | > 10 µM
9 | CC(=O)SC[C@@H](Cc1ccccc1)C(=O)NCC(=O)OCc1ccccc1 (racemic) [racecadotril] | > 10 µM | > 10 µM | > 10 µM | > 10 µM | 0 | 0 | 0 | 0.6 | 0 | 94.4% | 95.7% | 99.7% | 92.6% | 122% | 105% | 99.3% | 94.1% | 101% | 109% | 101% | 96.8% | 97.4% | 98.9% | 102% | 105% | 101% | 88.8% | 89.7% | 102% | 92.8% | 96.7% | 95.5% | 105% | 108% | > 10 µM
10 | O[C@@H]1CCCC[C@H]1N1CCC(c2ccccc2)CC1 (racemic) [vesamicol] | > 10 µM | > 10 µM | > 10 µM | > 10 µM | 0 | 0 | 0 | 0 | 0 | 95.3% | 83.6% | 99.5% | 92.9% | 95.2% | 94% | 95.6% | 93.3% | 101% | 102% | 95.2% | 96.5% | 102% | 101% | 101% | 85.7% | 111% | 102% | 97.1% | 98% | 101% | 106% | 113% | 105% | 97.2% | > 10 µM
11 | CN1[C@@H]2CC[C@H]1C[C@@H](OC(c1ccc(F)cc1)c1ccc(F)cc1)C2 [3-alpha-bis-(4-fluorophenyl)-methoxytropane] | > 10 µM | > 10 µM | > 10 µM | > 10 µM | 0 | 0.3 | 0 | 1.6 | 0 | 95.5% | 90.9% | 92.6% | 102% | 102% | 102% | 103% | 100% | 97.9% | 86.1% | 102% | 96.1% | 101% | 96.8% | 93.1% | 102% | 96.3% | 92% | 93.6% | 74.1% | 109% | 106% | 99.5% | 126% | 86.5% | 
12 | CCc1nn(CCCN2CCN(c3cccc(Cl)c3)CC2)c(=O)n1CCOc1ccccc1 [nefazodone] | > 10 µM | > 10 µM | > 10 µM | > 10 µM | 0.1 | 0 | 0 | 1.6 | 0 | 96.4% | 95.3% | 100% | 99.8% | 86.3% | 95.6% | 101% | 97.5% | 102% | 96.6% | 106% | 100% | 101% | 99% | 97.4% | 93.2% | 91.5% | 95.7% | 97.6% | 70.8% | 103% | 94.6% | 96.7% | 96.3% | 96.8% | 
13 | N#Cc1ccc(-c2csc(NN=C3CCCC3)n2)cc1 [remodelin] | > 10 µM | > 10 µM | > 10 µM | > 10 µM | 0.7 | 0 | 0 | 2.2 | 0 | 95.5% | 99.7% | 94.8% | 103% | 76.6% | 98.3% | 103% | 102% | 99.2% | 105% | 98.3% | 102% | 99.3% | 105% | 95.5% | 105% | 97.2% | 109% | 92.3% | 73.1% | 102% | 102% | 96.3% | 116% | 93% | 
14 | O=C(O)c1cc(/N=N/c2ccc(S(=O)(=O)Nc3ccccn3)cc2)ccc1O [sulfasalazine] | > 10 µM | > 10 µM | > 10 µM | > 10 µM | 0 | 0 | 0 |  | 0 | 108% | 99.5% | 89.9% | 96.6% | 112% | 104% | 103% | 107% | 98.7% | 97.6% | 98.6% | 99.1% | 97.4% | 102% | 98.1% |  |  |  |  |  | 101% | 102% | 102% | 104% | 91.5% | 
15 | CCCS(=O)(=O)Nc1ccc(F)c(C(=O)c2c[nH]c3ncc(-c4ccc(Cl)cc4)cc23)c1F [vemurafenib] | > 10 µM | > 10 µM | > 10 µM | > 10 µM | 0.5 | 0 | 0.1 | 1.9 | 0 | 109% | 97.3% | 117% | 107% | 77% | 106% | 104% | 100% | 111% | 91.7% | 96.6% | 100% | 95.2% | 104% | 86.8% | 113% | 103% | 98.3% | 107% | 54.5% | 102% | 105% | 106% | 95.8% | 90.1% | 
